Experimental data reported in publication PMC3933948 (Bioorganic & medicinal chemistry, 2013).
Like-named read-outs stand apart in the source and are kept apart here.

Experiments:
[1] = target: T1, recombinant human aromatase (CYP19) (Homo sapiens, UniProt P11511); assay: Fluorescence-based aromatase activity assay; format: biochemical; settings: for aromatase inhibition (in words): enzymatic assay; for fold increase in aromatase inhibitory potency vs precursor 1e: compared with 3-(pyridin-3-yl)chroman-4-one 1e
T1 sequence (P11511 1-503): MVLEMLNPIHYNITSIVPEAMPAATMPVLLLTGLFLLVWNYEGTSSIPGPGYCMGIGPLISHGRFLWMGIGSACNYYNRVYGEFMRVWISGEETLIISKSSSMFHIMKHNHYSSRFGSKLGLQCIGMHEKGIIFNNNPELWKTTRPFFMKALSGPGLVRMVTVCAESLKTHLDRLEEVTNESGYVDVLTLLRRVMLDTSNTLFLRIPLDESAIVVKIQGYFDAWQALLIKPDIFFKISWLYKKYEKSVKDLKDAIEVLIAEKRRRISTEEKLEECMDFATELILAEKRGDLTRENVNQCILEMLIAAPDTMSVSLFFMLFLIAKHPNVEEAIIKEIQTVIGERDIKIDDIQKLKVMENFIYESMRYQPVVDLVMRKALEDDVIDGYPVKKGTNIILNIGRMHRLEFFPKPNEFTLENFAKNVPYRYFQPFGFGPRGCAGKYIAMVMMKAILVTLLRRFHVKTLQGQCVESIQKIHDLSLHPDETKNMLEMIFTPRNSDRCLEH

MCF-7 cells = assay: Estrogen-dependent MCF-7 growth inhibition; format: cell-based, human; settings: estrogen-dependent MCF-7 cells
[2] = target: T1, recombinant human aromatase (CYP19); settings: AI previously synthesized in the authors' lab ref 9; cited from earlier work
[3] = tested on: non-estrogen dependent MCF-7 cells; assay: Growth inhibition of non-estrogen dependent MCF-7 cells; format: cell-based, human; settings: MCF-7 cells raised without estrogen

aromatase inhibition (in words) [1]	Compound	fold increase in aromatase inhibitory potency vs precursor 1e [1]	anti-proliferative activity on MCF-7 (in words) (MCF-7 cells)	other results
No significant inhibition	COc1ccc2c(c1)C(=O)C(c1ccc(Oc3ccccc3)cc1)CO2 (stereo not shown) [3b, 6-Methoxy-3-(4-phenoxyphenyl)chroman-4-one]			
	O=C1c2cc(F)ccc2OCC1c1cccnc1 (stereo not shown) [3e, 6-Fluoro-3-(pyridin-3-yl)chroman-4-one]	7 fold	inactive	fold increase in aromatase inhibitory potency vs parent 1a ([1]; compared with parent molecule 1a): 36 fold
	O=C1c2ccccc2OCC1c1ccc(-c2ccccc2)cc1 (stereo not shown) [1c, 3-(biphenyl-4-yl)chroman-4-one]		did not show anti-cancer cell activity	aromatase inhibition (in words) [2]: inactive
	COc1ccc2c(c1)C(=O)C(c1cccnc1)CO2 (stereo not shown) [3c, 6-methoxy-3-(pyridin-3-yl)chroman-4-one]	more than 2 fold	inactive	growth inhibition (in words) [3]: no growth inhibition was observed
No significant inhibition	O=C1c2c(ccc3ccccc23)OCC1c1ccc(Oc2ccccc2)cc1 (stereo not shown) [3a, 2-(4-Phenoxyphenyl)-2,3-dihydro-1H-benzo[f]chromen-1-one]			
